# Laboratory results: PubChem BioAssay AID1996
# Details: buffer; pH 7.4; 200.0 µM
row,SMILES,solubility kinetic
1,O=C1NC2(CCCCCCC2)C(=O)N1Cc1ccc(F)cc1,10.5 µg/mL
2,Cc1ccc(C(=O)O)c(C(=O)Nc2nc3ccccc3s2)c1,> 46.9 µg/mL
3,O=C(NCC(=O)N1CCN(c2ccccc2)CC1)c1cccs1,> 49.4 µg/mL
4,COC(=O)CC1=C(C(=O)OC)[C@@H](c2ccccc2[N+](=O)[O-])C(C#N)=C(N)O1,> 56 µg/mL
5,COc1ccc(/C=N/N2CCOCC2)cc1Cn1cc([N+](=O)[O-])cn1,> 51.8 µg/mL
6,O=C(CN1CCOCC1)Nc1ccc([N+](=O)[O-])cc1Br,7.3 µg/mL
7,O=C(COC(=O)c1cc(Cl)ccc1[N+](=O)[O-])NC1CC1,> 44.8 µg/mL
8,CCN1c2ccccc2S(=O)(=O)c2ccccc21,15.6 µg/mL
9,O=C(Cc1ccccc1)NCC(=O)N/N=C/c1ccc(C(=O)O)cc1,> 50.9 µg/mL
10,O=C(Cc1c[nH]c2ccccc12)N1CCN(c2ccccc2)CC1,3.9 µg/mL
11,O=[N+]([O-])c1cccc(S(=O)(=O)N2CN(c3ccc(Br)cc3)c3nc4ccccc4nc32)c1,1.6 µg/mL
12,CN(CC(=O)Nc1cccc(F)c1)C(=O)COc1ccc2c(c1)CCC2,1.9 µg/mL
13,COc1cccc(CNc2cc(C)ccn2)c1O,> 36.6 µg/mL
14,NC(=O)C1CCN(C(=O)CSc2nc(O)cc(=O)[nH]2)CC1,31.1 µg/mL
15,COC(=O)/C(C#N)=C/c1c(N2CCN(C)CC2)nc2ccccn2c1=O,> 53 µg/mL
16,O=C(Cc1ccccc1[N+](=O)[O-])Nc1ccc2c(c1)OCO2,14.6 µg/mL
17,Cc1cccc(N2CC(C(=O)OCC(=O)Nc3sccc3C(N)=O)CC2=O)c1C (configuration not stated),6.5 µg/mL
18,Cc1ccc(S(=O)(=O)CC(=O)Nc2cc(C)on2)cc1,37.6 µg/mL
19,COc1cccc(C(=O)NCCCNC(=O)c2cccnc2)c1,> 47 µg/mL
20,CCOC(=O)c1ccc(NC(=O)Nc2ncccc2C)cc1,0.6 µg/mL
21,CCCN(Cc1cc(=O)[nH]c2ccccc12)C(=O)CC,38.5 µg/mL
22,CCOC(=O)CSc1nnc(-c2cccnc2)n1C,> 41.7 µg/mL
23,CCC(C)NC(=O)c1ccc(CN2CCc3ccccc3C2)cc1 (configuration not stated),7.1 µg/mL
24,Cc1ccccc1NC(=O)NCCCCc1ccccc1,1.5 µg/mL

row,SMILES,solubility kinetic
1,CS(=O)(=O)N1CCC(C(=O)Nc2ccc(C(N)=O)cc2)CC1,34.7 µg/mL
2,COc1ccc(-c2ccc3c(N)c(C(=O)NC(C)C)sc3n2)cc1OC,30.1 µg/mL
3,Cc1c(C=O)c2ccccn2c1C(=O)c1ccc(F)cc1,6.5 µg/mL
4,O=C(OCCN1CCN(C2=NS(=O)(=O)c3ccccc32)CC1)c1ccccc1F,57.3 µg/mL
5,CC(NCc1ccc2c(c1)OCO2)c1ccccc1.Cl (configuration not stated),41 µg/mL
6,Cc1ccc(C(=O)OCC(=O)NC2CCCc3ccccc32)o1 (configuration not stated),13.1 µg/mL
7,CC(=O)C1=C(Nc2ccccc2)CC(C)(O)C(C(C)=O)C1c1ccccc1 (configuration not stated),4.1 µg/mL
8,O=C(CN1CCN(c2ccccc2F)CC1)NC(=O)NC1CCCCC1,> 54.4 µg/mL
9,C=CCn1c(O)c(Cc2ccc(OCC)cc2)c(=O)[nH]c1=O,43.7 µg/mL
10,COc1ccc(CCN(C)C2CCCN(S(C)(=O)=O)C2)cc1OC (configuration not stated),> 53.5 µg/mL
11,O=c1c(Cc2ccc(F)cc2)c(O)ccn1CCc1ccccn1,> 48.7 µg/mL
12,C=CCNC(=S)Nc1sc2c(c1C(N)=O)CCCC2,18.2 µg/mL
13,CCOC(=O)c1c(C)nc(C(Cl)(Cl)Cl)nc1N,21.7 µg/mL
14,CC(C)N1CCN(c2ccc(S(=O)(=O)N3CCOCC3)cn2)CC1,> 53.2 µg/mL
15,O=C(COc1ccccc1)Nc1cc2c3c(c1)CC(=O)N3CCC2,> 48.4 µg/mL
16,O=C(CNC(=O)c1cccs1)OCc1ccc(Cl)cc1,41 µg/mL
17,CCn1c(COc2ccc(C)cc2)nc2ccccc21,2.2 µg/mL
18,NS(=O)(=O)c1ccc(NC(=O)CCC(=O)c2cccs2)cc1,14.7 µg/mL
19,CC1CCCCC1NC(=O)COc1ccc(C#N)cc1 (configuration not stated),> 40.9 µg/mL
20,COc1ccc(/C=C/C(=O)NC(=S)N2CCCCC2)cc1OC,> 50.2 µg/mL
21,O=C(NCc1ccco1)/C(=C/c1ccco1)NC(=O)c1ccccc1,41.5 µg/mL
22,NC(=O)C1CCN(C(=O)NC(=O)c2ccccc2)CC1,> 41.3 µg/mL
23,CC(=O)c1sc(NC(=O)c2cccc(C)c2)nc1C,16.8 µg/mL
24,COc1ccc(CNC(=O)COC(=O)c2ccc(F)c(S(=O)(=O)N3CCOCC3)c2)cc1,68 µg/mL

row,SMILES,solubility kinetic
1,CCc1cccc(C)c1N1C(=O)CC(C)(C)CC1=O,> 38.9 µg/mL
2,CCCNC(=O)Cc1c(C)oc2ccccc12,> 34.7 µg/mL
3,COP(=O)(NC(=O)C(Cl)(Cl)Cl)OC,> 40.6 µg/mL
4,COC(=O)NCN1C(=O)C2C3C=CC(C3)C2C1=O (configuration not stated),34.4 µg/mL
5,Cc1cccc(NC(=O)C(=O)NCCCN2CCOCC2)c1,41.9 µg/mL
6,CC(=O)c1cccc(NC(=O)CCNC(=O)c2cccc(C)c2)c1,20.5 µg/mL
7,Cc1c(C(=O)NCC(c2ccco2)N2CCCC2)sc2ccccc12 (configuration not stated),> 53.2 µg/mL
8,COc1cc([N+](=O)[O-])ccc1NC(=S)N1CCOCC1,> 44.6 µg/mL
9,CCc1ccc2oc(C(=O)Nc3nonc3CC)c(C)c2c1,< 0.2 µg/mL
10,COc1cccc(CNC(C)C(=O)Nc2ccc(S(=O)(=O)N3CCCC3)cc2)c1 (configuration not stated),> 62.6 µg/mL
11,CSc1ncccc1C(=O)OCC(=O)NCCCc1ccccc1,20.6 µg/mL
12,O=C1C=C(NC2CCCC2)CC(c2ccccc2)C1 (configuration not stated),> 38.3 µg/mL
13,Cc1ccccc1-c1noc(-c2ccccc2C(=O)NCC2CCCO2)n1 (configuration not stated),49.6 µg/mL
14,C=CCc1cccc(CNc2ccc(Br)cc2)c1O,1.4 µg/mL
15,COc1ccccc1NC(=S)N1CCCCCC1,> 39.7 µg/mL
16,O=c1[nH]c(-c2cccnc2)nc2sc(-c3ccccc3)cc12,0.2 µg/mL
17,COc1ccc(-c2noc(CCC(=O)Nc3cccnc3)n2)cc1,3.8 µg/mL
18,COc1ccc(NC(C)=O)cc1S(=O)(=O)N1CC=C(c2ccccc2)CC1,2.6 µg/mL
19,Cc1nc(SCc2cccc(F)c2)c2oc3ccccc3c2n1,< 0.3 µg/mL
20,CCOCCOC(=O)c1[nH]c2c(c1C)C(=O)CC(c1ccccc1)C2 (configuration not stated),2.3 µg/mL
21,CC(C)OCC(O)CN1CCC(Cc2ccccc2)CC1.Cl (configuration not stated),> 49.2 µg/mL
22,CC(NC(=O)COC(=O)CCC(=O)c1ccc(F)cc1)c1ccccc1 (configuration not stated),> 53.6 µg/mL
23,CCn1c(=O)c2ccccc2n(Cc2cccc(C)c2)c1=O,19.9 µg/mL
24,Brc1ccc(OCCN2CCOCC2)cc1,29 µg/mL

row,SMILES,solubility kinetic
1,CC(=O)c1cccc(-n2c(CCC(=O)O)ccc2-c2ccccc2)c1,> 50 µg/mL
2,Cc1cc(NC(=O)CN2C(=O)c3ccccc3C2=O)no1,37.9 µg/mL
3,CC(=O)N1CCN(C(=O)c2ccc(Oc3ccccc3)cc2)CC1,46.6 µg/mL
4,O=C(NCCc1ccc(Cl)cc1Cl)c1ccc2nc[nH]c2c1,33.2 µg/mL
5,COc1cccc(NC(=O)N(CCN(C)C)C(C)c2cccnc2)c1 (configuration not stated),> 51.4 µg/mL
6,Cc1ccc(C(=O)NC(=O)OCCn2c(C)cnc2[N+](=O)[O-])cc1,48.2 µg/mL
7,O=C(/C=C/c1ccco1)OCC(=O)c1cccc([N+](=O)[O-])c1,3.2 µg/mL
8,CC(C)CN(C(=O)c1ccco1)C1CCS(=O)(=O)C1 (configuration not stated),> 42.8 µg/mL
9,CC(C)[C@H](NC(=O)c1ccccc1Cl)C(=O)OCC(=O)N1CCCCC1,> 57.1 µg/mL
10,CC(C)=CC(=O)OCC(=O)Nc1ccc(SC(F)F)cc1,10.6 µg/mL
11,O=C(c1ccc(Oc2ccc([N+](=O)[O-])cc2)cc1)N1CCCCCC1,34.4 µg/mL
12,CC(=O)c1nc2ccccc2n1Cc1ccccc1,14.5 µg/mL
13,O=C(CCN=C1NS(=O)(=O)c2ccccc21)NCc1ccccc1F,> 54.2 µg/mL
14,O=C(Nc1cccc(S(=O)(=O)N2CCOCC2)c1)c1ccc(=O)[nH]c1,> 54.5 µg/mL
15,Cc1ccc(NC(=O)CSCC(=O)O)cc1,> 35.9 µg/mL
16,O=S(=O)(NCCCN1CCOCC1)c1ccc2ccccc2c1,> 50.2 µg/mL
17,CSc1ccccc1NC(=O)CN(C)C(=O)COc1ncnc2ccccc12,45.1 µg/mL
18,Cc1c(C(=O)NC2CCOC2)oc2c(F)cccc12 (configuration not stated),> 39.5 µg/mL
19,COc1ccc(C(=O)Nc2c(C)cc(C)cc2C)cc1OC,> 44.9 µg/mL
20,Cc1ccc2c(c1)CCCN2C(=O)c1cc(C)on1,> 38.4 µg/mL
21,COc1ccc(CONc2ncnc3nonc23)cc1[N+](=O)[O-],> 47.7 µg/mL
22,CC1(C)CC(=O)C=C(Nc2ccc(C(=O)O)c(O)c2)C1,> 41.3 µg/mL
23,Cc1c(-c2ccc(Cl)cc2)[n+](=O)c(-c2ccccc2)cn1[O-],> 46.9 µg/mL
24,Cc1ccccc1NC(=O)NC1CCCc2ccccc21 (configuration not stated),0.9 µg/mL

row,SMILES,solubility kinetic
1,Cc1cccc(C(=O)N[C@@H](C)C(=O)N2CCN(c3ncccn3)CC2)c1,> 53 µg/mL
2,O=C(CN1CCN(c2ccccn2)CC1)Nc1ccc(F)c(F)c1,> 49.9 µg/mL
3,O=S(=O)(Nc1cccc(-c2nc3cccnc3s2)c1)c1cccs1,0.9 µg/mL
4,Cc1ccc(NC2c3ccccc3C(=O)N2c2cccnc2)cc1 (configuration not stated),40.5 µg/mL
5,O=C(O)C(=O)O.c1ccc2c(OCCCN3CCCCCC3)cccc2c1,32.8 µg/mL
6,CCOc1ccc(N/C=C/C(=O)c2ccc(OC)cc2)cc1,< 0.6 µg/mL
7,Cc1ccc(NC(=O)COC(=O)CNC(=O)C2CCCCC2)cc1S(=O)(=O)N(C)C,> 65.9 µg/mL
8,O=C(CNC(=O)c1ccc2ccccc2c1)NCc1ccc(F)cc1,1.9 µg/mL
9,Cn1c(C2CCCCC2)nc2c1c(=O)[nH]c(=O)n2Cc1ccccc1,16.7 µg/mL
10,Cc1nc([N+](=O)[O-])c(N2CCOCC2)n1Cc1ccccc1,44.7 µg/mL
11,O=C(CCCOC(=O)c1cccnc1Cl)c1ccc(Br)cc1,6.6 µg/mL
12,COc1ccc(S(=O)(=O)NCc2cccnc2)cc1OC,> 46.3 µg/mL
13,O=C(CN1c2cccc3cccc(c23)S1(=O)=O)NC1CCCCC1,5 µg/mL
14,O=C(COC(=O)CCC(=O)c1cccs1)NCc1cccs1,> 50.6 µg/mL
15,O=C1OCc2ccc(NC(=O)C3CC3)cc21,> 32.6 µg/mL
16,Cc1cccc(C2N=C(N)Nc3nc4ccccc4n32)c1 (configuration not stated),34.3 µg/mL
17,CN(C/C=C/c1ccccc1[N+](=O)[O-])Cc1ccccc1,19.2 µg/mL
18,S=C(Nc1ccc2c(c1)OCO2)Nc1ccccc1Cl,32.5 µg/mL
19,O=C(COC(=O)c1ccccc1Br)NCC1CCCCC1,38.1 µg/mL
20,CC(=O)Nc1ccc(NC(=O)COc2ncnc3ccccc23)cc1,> 50.5 µg/mL
21,CCOc1ccccc1NC(=O)CNC(=O)Cc1ccccc1,46.8 µg/mL
